Assay: membrane/water partition coefficient calculated from CV peak current ratio of uncoated and PVC membrane-coated GC electrode (Equation 1)
Assay type: physicochemical

CC(=O)Nc1ccc(O)cc1 [APAP, 4-acetamidophenol]
Pmw (membrane/water partition coefficient) (PVC membrane I (o-NPOE), Cw=1 mM, iw/im ~140, Dm=4×10^−8 cm^2/s, Dw=8×10^−6 cm^2/s): 0.1 | Pmw (membrane/water partition coefficient) (membrane III (DOS), same protocol): 0.5 | Pmw (membrane/water partition coefficient) (membrane V (1-octanol), same protocol): 1.6

— patent publication US11375929B2, “Method and device for detection of bioavailable drug concentration in a fluid sample” (THE UNIVERSITY OF TENNESSEE RESEARCH FOUNDATION, priority 2008, dated 2022)
